Read-outs that look alike come from different tables or passages of the source.

Experiment [1] deals with GST-tagged KRAS-G12D (2-169) (Homo sapiens, UniProt P01116, G12D). The experiment is described as follows: Nucleotide exchange assay (NEA), SOS-mediated, HTRF, KRAS G12D. Type of experiment: biochemical. Particulars: IC50 extracted at 30 min, 20 nM SOScat. The method, boiled down: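 Compound preincubated 1 h at RT with 0.25 nM GST-KRAS-G12D (2-169) and anti-GST Tb donor, then 20 nM SOS1cat (564-1049) and 150 nM GTP-DY-647P1 added; pH 7.3 HEPES buffer with MgCl2 and DTT. HTRF monitored at RT; % inhibition versus DMSO and no-SOS blank, 4-parameter IC50 taken at 30 min.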
For orientation: In TR-FRET formats the signal depends on donor and acceptor labels being close together.

Experiment [2] deals with GST-tagged KRAS-G12V (2-169) (Homo sapiens, UniProt P01116, G12V). The experiment is described as follows: Nucleotide exchange assay (NEA), SOS-mediated, HTRF, KRAS G12V. Type of experiment: biochemical. The following applies: Table 4; IC50 extracted at 90 min; 80 nM SOS. The gist of the method: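 GST-KRAS-G12V (2-169), 0.25 nM, pre-incubated 1 h at RT with compound, then SOS1cat (564-1049) 80 nM and GTP-DY-647P1 150 nM added in HEPES pH 7.3 buffer with MgCl2 and DTT. HTRF via anti-GST Tb cryptate read over 90 min; IC50 from 4-parameter fit at 90 min, blanked to no-SOS reactions.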

In experiment [3] the target is T1, KRAS G12V/RAF1 (Homo sapiens, UniProt P01116, G12V).
T1 construct: KRAS (1-169) proteins were expressed in BL21 (DE3)-CodonPlus E. coli; His6-MBP (N, cleaved yes)
The experiment is described as follows: Protein-protein interaction (PPI) HTRF assay KRAS G12V/RAF1. Type of experiment: binding. The following applies: Table 3. As for the experimental part: (§1) When RAS proteins are in the active GTP-bound conformation, they bind the effector protein RAF1 at the N-terminus Ras-binding domain (RBD, residues 52-131) (Tran, et al., 2021). Homogenous time resolved fluorescence (HTRF) was used to monitor the interaction between wt or mutant KRAS and RAF1 or wt NRAS and RAF1. Compounds were assayed in the presence of KRAS G12D/V and RAF1 versus wt KRAS to assess activity against mutant and w.t. KRAS. Similarly, compounds were then assayed in the presence of w.t. NRAS and RAF1 to assess RAS isoform selectivity. In all assay formats, His-tagged RAF1 protein was incubated with the HTRF donor, anti-6His Tb Cryptate gold (Cisbio 61DB10RDF), and biotinylated RAS proteins were incubated with the HTRF acceptor, streptavidin-d2 (CisBio 610SADLA). The intensity of the fluorescence signal emitted is proportional to binding between the two proteins. The donor solution was prepared by mixing 16 nM His-tagged RAF1 in protein dilution buffer with 1:100 anti-6His Tb cryptate in PPI-Terbium detection buffer. 16 nM biotinylated RAS protein was diluted into protein dilution buffer (50 mM Tris-HCl pH 7.5, 150 mM NaCl, 0.1 mM MgCl2, 1 mM TCEP, 0.005% Tween20) and mixed with 1:2000 Streptavidin-d2 diluted in PPI-Terbium detection buffer (CisBio 61DB10RDF). 50× compound in DMSO was mixed with 16 nM KRAS-acceptor solution and incubated for 30 minutes at room temperature. After compound pre-incubation with KRAS, the RAF1 donor solution was added to the KRAS-acceptor solution and incubated for 1 hour at room temperature. The fluorescence signal emitted was monitored at 665 nm and 615 nm using an Envision multimode plate reader. The HTRF ratio (665/615) was calculated and normalized to 0% inhibition in the absence of compound and 100% inhibition in the presence of untagged RAF1 protein. PPI KRAS G12D/RAF1, KRAS G12V/RAF1, w.t. KRAS/RAF1 and NRAS/RAF1 IC50 (uM) values of selected compounds are depicted in Table 3 and Table 4 with compounds having a value <0.1 uM as ++++; ≥0.1 uM to 1 uM as +++; ≥1 uM to 10 uM as ++; ≥10 uM to 100 uM as +; and ≥100 uM as NA.

Experiment [4] deals with T2, w.t. KRAS/RAF1 (Homo sapiens, UniProt P01116).
T2 construct: KRAS (1-169) proteins were expressed in BL21 (DE3)-CodonPlus E. coli; His6-MBP (N, cleaved yes)
The experiment is described as follows: Protein-protein interaction (PPI) HTRF assay w.t. KRAS/RAF1. The experiment is classed as binding. The following applies: Table 3; wt KRAS/RAF1. As for the experimental part:
as §1

For experiment [5], the system named is phospho-ERK in AGS cells. The experiment is described as follows: pERK In Cell Western (ICW) assay (Method B), AGS. The experiment is classed as cell-based. The following applies: Homo sapiens, Table 2, 3 hours. As for the experimental part: pERK ICW is a high throughput screening assay to evaluate the cellular potency of mutant KRAS small molecule inhibitors. KRAS mutant cell lines AGS, GP2D (KRAS-G12D) as well as SW620 (KRAS-G12V) were purchased from ATCC and maintained respectively in RPMI/DMEM/RPMI medium supplemented with 10% fetal bovine serum.
Cells grown in exponential phase were trypsinized, resuspended in fresh media, and viable cells were counted using a cell counter with Trypan Blue (BioRad TC20). Cells were seeded into 384-well plate (Greiner 781091) at density of 5,000 cells/well for AGS and 10,000 cells/well for GP2D/SW620 and allowed to grow overnight in a 37° C. CO2 incubator. The next day, compounds were dispensed into wells with a ½ log, 9-point serial dilution using a Tecan D300e dispenser and incubated for 3 hours in a 37° C. CO2 incubator. Cells were then fixed with paraformaldehyde (Electron Microscopy Sciences, 15710, 4% final concentration) for 30 min, permeabilized with wash buffer (1×PBS+0.1% Triton X-100) for 30 min and blocked with Odyssey blocking buffer (Li—COR 927-70001) for 1 hour, all at room temperature (RT). Phospho-ERK antibody (CST 4370L) was diluted 1:500 in Odyssey T20 (PBS) antibody diluent (Li—COR 927-75001) and incubated with cells overnight at 4° C. The next day, plates were washed 5× with wash buffer, incubated with IRDye 800 CW, Goat anti-Rabbit secondary antibody (Li—COR 926-32211, 1:800) and DRAQ5 (CST 4084L, 1:5,000) diluted in Odyssey T20 (PBS) antibody diluent for 1 hour, washed 5×, and imaged on an Odyssey CLx imaging system.
For data analysis, signal intensities from 800 (phosphor-ERK) and 700 (DRAQ5) channels were extracted, and phospho-ERK signals were normalized to DRAQ5 signals for each well and percent of blank control values were computed. Data were then imported into Graphpad Prism to compute half-maximal inhibitory concentrations (IC50) using a 4-parameter variable slope model. Z-factor for each plate was computed from signals derived from wells treated with either DMSO or 5 μM of control compound. AGS pERK ICW (Method B) IC50 (uM) values of selected compounds are depicted in Table 2 with compounds having a value ≥0.001 uM to 0.01 uM as ++++; ≥0.01 uM to 0.1 uM as +++; ≥0.1 uM to 1 uM as ++; ≥1 uM to 10 uM as + and ≥10 uM as NA.

The subject of experiment [6] is phospho-ERK in GP2D (KRAS-G12D) cells. The experiment is described as follows: pERK In Cell Western (ICW) assay (Method B), GP2D. The experiment is classed as cell-based. Particulars: GP2d, 3 h, Table 4. The gist of the method: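 Here IC50 reflects phospho-ERK suppression after 3 h compound exposure at 37 °C in cells grown in 10% FBS medium. Signal is normalized to DRAQ5 DNA stain and to blank control wells.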

Experiment [7] concerns the target T3, KRAS G12D/RAF1 (Homo sapiens, UniProt P01116, G12D).
T3 construct: KRAS (1-169) proteins were expressed in BL21 (DE3)-CodonPlus E. coli; His6-MBP (N, cleaved yes)
The experiment is described as follows: Protein-protein interaction (PPI) HTRF assay KRAS G12D/RAF1. The experiment is classed as binding. Particulars: Table 2. As for the experimental part:
as §1

[8] abbreviates: Table 2, read-out: NEA-G12D (uM) IC50.
Setting [9] is: Table 4, read-out: NEA G12D IC50.

T2 sequence (P01116 with tags, fused parts or gaps isoform P01116-2): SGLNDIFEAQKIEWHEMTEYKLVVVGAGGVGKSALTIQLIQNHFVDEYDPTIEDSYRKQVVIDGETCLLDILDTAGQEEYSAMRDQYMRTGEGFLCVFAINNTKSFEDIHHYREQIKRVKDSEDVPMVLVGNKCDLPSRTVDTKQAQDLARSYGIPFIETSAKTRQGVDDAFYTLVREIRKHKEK
Sequence of GST-tagged KRAS-G12D (2-169) (P01116 2-169 isoform P01116-2 G12D): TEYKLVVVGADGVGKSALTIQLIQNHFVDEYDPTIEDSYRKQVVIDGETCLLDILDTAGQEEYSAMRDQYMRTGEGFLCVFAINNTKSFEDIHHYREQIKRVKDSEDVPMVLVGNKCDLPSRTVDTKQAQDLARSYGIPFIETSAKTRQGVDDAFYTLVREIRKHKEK
T1 sequence (P01116 with tags, fused parts or gaps isoform P01116-2 G12V): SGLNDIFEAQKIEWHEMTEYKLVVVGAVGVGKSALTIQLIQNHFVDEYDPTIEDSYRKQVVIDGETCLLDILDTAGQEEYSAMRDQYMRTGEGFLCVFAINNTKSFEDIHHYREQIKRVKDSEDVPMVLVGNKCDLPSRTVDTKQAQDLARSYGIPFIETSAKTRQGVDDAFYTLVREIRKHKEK
Sequence of GST-tagged KRAS-G12V (2-169) (P01116 2-169 isoform P01116-2 G12V): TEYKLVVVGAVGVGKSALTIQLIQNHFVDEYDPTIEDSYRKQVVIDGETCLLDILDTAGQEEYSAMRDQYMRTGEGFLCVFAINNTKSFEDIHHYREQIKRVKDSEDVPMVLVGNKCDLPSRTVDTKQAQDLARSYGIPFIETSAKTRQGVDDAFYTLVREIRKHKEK
T3 sequence (P01116 with tags, fused parts or gaps isoform P01116-2 G12D): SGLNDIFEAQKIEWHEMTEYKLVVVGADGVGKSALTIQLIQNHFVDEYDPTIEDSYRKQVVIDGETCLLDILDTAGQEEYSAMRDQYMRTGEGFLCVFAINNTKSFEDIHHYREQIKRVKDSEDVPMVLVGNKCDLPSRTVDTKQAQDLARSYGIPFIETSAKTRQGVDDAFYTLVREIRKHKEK

As a reminder, the IC50 is the midpoint of a concentration-inhibition curve. As to `N#Cc1c(N)sc2c1C1(CC2)CN(c2nc(OCC3(C#N)CC3)nc(OC[C@@]34CCCN3C[C@H](F)C4)n2)C1` [Compound 16, 2-amino-1′-[4-[(1-cyanocyclopropyl)methoxy]-6-[[(2R,8S)-2-fluoro-1,2,3,5,6,7-hexahydropyrrolizin-8-yl]methoxy]-1,3,5-triazin-2-yl]spiro[5,6-dihydrocyclopenta[b]thiophene-4,3′-azetidine]-3-carbonitrile], the IC50 lay within 0.01 to 0.1 µM in experiment [1] (setting [8]); 0.01 to 0.1 µM in experiment [1] (setting [9]); 10 to 100 nM in experiment [2]; 1 to 10 µM in experiment [3]; 10 to 100 µM in experiment [4]; 1 to 10 µM in experiment [5]. The IC50 was 1000 to 20000 nM in experiment [6] and 1 to 10 µM in experiment [7].
For `CC1(C#N)CCCN(c2nc(OC[C@@]34CCCN3C[C@H](F)C4)nc(N3CC4(CCc5sc(N)c(C#N)c54)C3)n2)C1` (stereo partly drawn) [Compound 19, 2-amino-1′-[4-(3-cyano-3-methyl-1-piperidyl)-6-[[(2R,8S)-2-fluoro-1,2,3,5,6,7-hexahydropyrrolizin-8-yl]methoxy]-1,3,5-triazin-2-yl]spiro[5,6-dihydrocyclopenta[b]thiophene-4,3′-azetidine]-3-carbonitrile], the IC50 in experiment [1] (setting [8]) lay within 0.01 to 0.1 µM; in experiment [1] (setting [9]), 0.01 to 0.1 µM; in experiment [2] it was 10 to 100 nM; in experiment [3] it was 1 to 10 µM; in experiment [4], 1 to 10 µM; in experiment [5] it was 0.1 to 1 µM. For the same compound, the IC50 in experiment [6] lay within 100 to 1000 nM; in experiment [7], 1 to 10 µM.
`CC1(CO)CCCN(c2nc(OC[C@@]34CCCN3C[C@H](F)C4)nc(N3CC4(CCc5sc(N)c(C#N)c54)C3)n2)C1` (stereo partly drawn) [Compound 18, 2-amino-1′-[4-[[(2R)-2-fluoro-1,2,3,5,6,7-hexahydropyrrolizin-8-yl]methoxy]-6-[3-(hydroxymethyl)-3-methyl-1-piperidyl]-1,3,5-triazin-2-yl]spiro[5,6-dihydrocyclopenta[b]thiophene-4,3′-azetidine]-3-carbonitrile]: the IC50 in experiment [1] (setting [8]) was 0.01 to 0.1 µM; in experiment [1] (setting [9]), 0.01 to 0.1 µM; in experiment [2], 10 to 100 nM; in experiment [3] it was 1 to 10 µM; in experiment [4] it was 1 to 10 µM; in experiment [5], 1 to 10 µM. The IC50 in experiment [6] was in the range of 1000 to 20000 nM; in experiment [7], 1 to 10 µM.
Regarding `CN(CC1(C#N)CC1)c1nc(OC[C@@]23CCCN2C[C@H](F)C3)nc(N2CC3(CCc4sc(N)c(C#N)c43)C2)n1` [Compound 15, 2-amino-1′-[4-[(1-cyanocyclopropyl)methyl-methyl-amino]-6-[[(2R,8S)-2-fluoro-1,2,3,5,6,7-hexahydropyrrolizin-8-yl]methoxy]-1,3,5-triazin-2-yl]spiro[5,6-dihydrocyclopenta[b]thiophene-4,3′-azetidine]-3-carbonitrile], the IC50 was in the range of 0.1 to 1 µM in experiment [1] (setting [8]); 0.1 to 1 µM in experiment [1] (setting [9]); 10 to 100 nM in experiment [2]; 1 to 10 µM in experiment [3]; 1 to 10 µM in experiment [4]; 1 to 10 µM in experiment [7].
Regarding `C[C@]1(O)CN(c2nc(OC[C@@]34CCCN3C[C@H](F)C4)nc(N3CC4(CCc5sc(N)c(C#N)c54)C3)n2)CC[C@H]1O` [Compound 21, 2-amino-1′-[4-[(3S,4R)-3,4-dihydroxy-3-methyl-1-piperidyl]-6-[[(2R,8S)-2-fluoro-1,2,3,5,6,7-hexahydropyrrolizin-8-yl]methoxy]-1,3,5-triazin-2-yl]spiro[5,6-dihydrocyclopenta[b]thiophene-4,3′-azetidine]-3-carbonitrile], the IC50 was 0.01 to 0.1 µM in experiment [1] (setting [8]); 0.01 to 0.1 µM in experiment [1] (setting [9]); 10 to 100 nM in experiment [2]; 1 to 10 µM in experiment [3]; 0.1 to 1 µM in experiment [4]; 0.1 to 1 µM in experiment [5]. Moreover, the IC50 in experiment [6] lay within 100 to 1000 nM; in experiment [7], 0.1 to 1 µM.
Turning to `N#Cc1c(N)sc2c1C1(CC2)CN(c2nc(OC[C@@]34CCCN3C[C@H](F)C4)nc(N3CCCC(C#N)CC3)n2)C1` (stereo partly drawn) [Compound 8, 2-amino-1′-[4-(4-cyanoazepan-1-yl)-6-[[(2R,8S)-2-fluoro-1,2,3,5,6,7-hexahydropyrrolizin-8-yl]methoxy]-1,3,5-triazin-2-yl]spiro[5,6-dihydrocyclopenta[b]thiophene-4,3′-azetidine]-3-carbonitrile], the IC50 in experiment [1] (setting [8]) fell in the range of 0.01 to 0.1 µM; in experiment [3] it was 1 to 10 µM; in experiment [4], 1 to 10 µM; in experiment [7] it was 1 to 10 µM.
In the case of `N#Cc1c(N)sc2c1C1(CC2)CN(c2nc(OC[C@@]34CCCN3C[C@H](F)C4)nc(N3CC[C@@H](O)[C@@H](O)C3)n2)C1` (racemic) [Compound 22, 2-amino-1′-[4-[rac-(3S,4R)-3,4-dihydroxy-1-piperidyl]-6-[[(2R,8S)-2-fluoro-1,2,3,5,6,7-hexahydropyrrolizin-8-yl]methoxy]-1,3,5-triazin-2-yl]spiro[5,6-dihydrocyclopenta[b]thiophene-4,3′-azetidine]-3-carbonitrile], the IC50 was in the range of 0.01 to 0.1 µM in experiment [1] (setting [8]); 0.01 to 0.1 µM in experiment [1] (setting [9]); 10 to 100 nM in experiment [2]; 10 to 100 µM in experiment [3]; 1 to 10 µM in experiment [4]; 1 to 10 µM in experiment [5]. In addition, the results for the IC50 in experiment [6] and in experiment [7] were 1000 to 20000 nM and 1 to 10 µM, respectively.

The values above are taken from patent US12421254B2, “KRAS modulators and uses thereof” (Quanta Therapeutics, Inc., priority 2023, dated 2025).
